Test results reported in paper PMC12529164, “Design, Synthesis, Structure–Activity Relationships, and Preliminary Anticancer Properties of Menthol-Modified Coumarin Esters and 3,4-Dihydrocoumarin Derivatives” (ACS Omega, 2025).
Like-named read-outs stand apart in the source and are kept apart here.

Key:
MDA-MB-231 = experiment: MTT cytotoxicity assay; assay type: cell-based, human; conditions: for IC50: MTT, 72 h, human breast adenocarcinoma; for SI MDA-MB-231: SI = IC50 for normal cell line (HaCaT)/IC50 cancer cell line
Method: (§1) The human primary (SW480) and metastatic (SW620) colon cancer, metastatic prostate cancer (PC3), breast adenocarcinoma (MDA-MB-231) and human immortal keratinocyte (HaCaT) cell lines were recruited from the American Type Culture Collection (ATCC). The cells were cultured in the recommended medium according to protocols (RPMI 1640 for PC3, MEM for SW480 and SW620, as well as DMEM for MDA-MB-231 and HaCaT cells) with addition of 10% FBS, penicillin (100 U/mL), and streptomycin (100 μg/mL) and cultured in 37 °C/5% CO2 in a humidified incubator. Then, the cells were passaged at a confluence of 80–90% by a treatment with 0.25% trypsin (Gibco Life Technologies) and used for studies.
(§2) They were added to 96-well plates with seeded normal and cancer cells (1 × 10^4 cells per well) and incubated for 72 h. MTT analysis was performed according to a previous study.

PC3 = experiment: MTT cytotoxicity assay; assay type: cell-based, human; conditions: for IC50: MTT, 72 h, human metastatic prostate cancer; for SI PC3: SI = IC50 for normal cell line (HaCaT)/IC50 cancer cell line
Method: as §1, §2

SW480 = experiment: MTT cytotoxicity assay; assay type: cell-based, human; conditions: for SI SW480: SI = IC50 for normal cell line (HaCaT)/IC50 cancer cell line; for IC50: MTT, 72 h, human primary colon cancer
Method: as §1, §2

SW620 = experiment: MTT cytotoxicity assay; assay type: cell-based, human; conditions: for SI SW620: SI = IC50 for normal cell line (HaCaT)/IC50 cancer cell line; for IC50: MTT, 72 h, human metastatic colon cancer
Method: as §1, §2

HaCaT = experiment: MTT cytotoxicity assay, normal cells; assay type: cell-based; conditions: 72 h, human immortal keratinocytes (normal cells)
Method: as §1, §2

[1] = tested on: tested cancer cell lines (SW480, SW620, PC3, MDA-MB-231); experiment: MTT assay, mean over tested cancer cell lines; assay type: cell-based; conditions: Homo sapiens, mean of the four cancer cell lines
Method: They were added to 96-well plates with seeded normal and cancer cells (1 × 10^4 cells per well) and incubated for 72 h. MTT analysis was performed according to a previous study. […]

Danio rerio larvae = experiment: In vivo toxicity, maximum tolerated concentration; conditions: zebrafish larvae, immersion from 96 hpf for 18 h (120 hpf), 5-150 μM tested
Method: Zebrafish (Danio rerio, strain AB) was maintained at the Experimental Medicine Center, Medical University of Lublin, Poland. Embryos and larvae up to 120 h postfertilization (hpf) were kept under generally accepted environmental conditions, i.e., in incubators at 28.5 °C, with 14/10 h light/dark cycles. The embryos of the Zebrafish were harvested after the natural reproduction process.
Three compounds showing low IC50 values determined on cancer lines in in vitro tests (2b, 4a) and compound 1a characterized by low cytotoxicity were used for in vivo tests. We also conducted research for coumarin. These compounds were dissolved in dimethyl sulfoxide (DMSO) (Sigma-Aldrich, St. Louis, MO, USA) and diluted in the zebrafish medium (pH 7.1–7.3; 5.0 mM NaCl, 0.17 mM KCl, 0.33 mM CaCl2, 0.33 mM MgSO4) to achieve a final DMSO concentration of 1% w/v. Twenty-four hpf zebrafish embryos were investigated under a light microscope, and […] fertilized embryos (n = 60) were selected and transferred into 48-well plates (5 embryos per well). Larvae were incubated in 1 mL of the zebrafish medium for up to 3 days after fertilization.
On the fourth day postfertilization (96 hpf), the larvae (10 individuals per group) were incubated in solutions of coumarin or its three derivatives (1a, 2b, 4a) at selected concentrations (5, 10, 25, 50, 75, 100, 150 μM), along with control solutions: negative control (zebrafish medium) and solvent control (1% DMSO in zebrafish medium). The maximum tolerated concentration (MTC) was calculated to assess the toxicity of the compounds and extracts. […] Larvae were individually inspected under a microscope for signs of acute locomotor dysfunction, including a weak reaction to light tail stimulation with a fine needle, disrupted posture, body deformities, protruding eyes, slowed or absent heartbeat, and mortality.

[2] = Table S7, >100 entered as 100, read-out: mean anticancer IC50
[3] = read-out: average IC50 against tested cancer cell lines

IC50 [1, 2] [µM]	IC50 [1, 3] [µM]	SMILES	IC50 (MDA-MB-231; MDA-MB-231) [µM]	SI MDA-MB-231 (MDA-MB-231)	IC50 (PC3; PC-3) [µM]	SI PC3 (PC3)	SI SW480 (SW480)	IC50 (SW480; SW480) [µM]	SI SW620 (SW620)	IC50 (SW620; SW-620) [µM]	IC50 (HaCaT; HaCaT) [µM]	IC50 (MDA-MB-231) [µM]	IC50 (PC3) [µM]	IC50 (SW480) [µM]	IC50 (SW620) [µM]	IC50 (HaCaT) [µM]	maximum tolerated concentration (MTC) (Danio rerio larvae) [µM]
> 100		COc1cccc2cc(P(=O)(c3ccccc3)c3ccccc3)c(=O)oc12 [Compound 3, 3-(Diphenylphosphinyl)-8-methoxy-2H-chromen-2-one]	> 100	1	> 100	1	1	> 100	1	> 100	> 100						
		CCOP(=O)(OCC)c1cc2ccccc2oc1=O [Compound 2a, Diethyl (2-Oxo-2H-chromen-3-yl)phosphonate]		1		1	1		1			> 100	> 100	> 100	> 100	> 100	
> 100		CC(C)[C@H]1CC[C@H](C)C[C@@H]1OC(=O)c1cc2ccccc2oc1=O [Compound 1b, (1S,2R,5S)-2-Isopropyl-5-methylcyclohexyl 2-oxo-2H-chromene-3-carboxylate]	> 100	0.41	> 100	0.41	0.41	> 100	0.41	> 100	41.1 ± 2.8						
43.7	43.7	CC(C)[C@@H]1CC[C@@H](C)C[C@H]1OC(=O)c1cc2ccc(O)cc2oc1=O [Compound 1e, (1R,2S,5R)-2-Isopropyl-5-methylcyclohexyl 7-hydroxy-2-oxo-2H-chromene-3-carboxylate]	86.7 ± 2.24	0.91	21.8 ± 4.21	3.61	2.84	27.7 ± 2.42	2.03	38.7 ± 0.01	78.8 ± 7.12						
> 100		CCOC(=O)C1C(=O)Oc2ccccc2C1P(=O)(c1ccccc1)c1ccccc1 (stereo not drawn) [Compound 4c, Ethyl 4-(Diphenylphosphoryl)-2-oxochroman-3-carboxylate]	> 100	1	> 100	1	1	> 100	1	> 100	> 100						
> 100		O=C(OC1CCCCC1)c1cc2ccccc2oc1=O [Compound 1f, Cyclohexyl 2-Oxo-2H-chromene-3-carboxylate]	> 100	1	> 100	1	1	> 100	1	> 100	> 100						
		N.N.[Cl][Pt][Cl] [Cisplatin, reference compound]										7.3 ± 0.8		10.4 ± 0.9	6.7 ± 1.1		
> 100		COc1ccc2cc(C(=O)O[C@@H]3C[C@H](C)CC[C@H]3C(C)C)c(=O)oc2c1 [Compound 1c, (1R,2S,5R)-2-Isopropyl-5-methylcyclohexyl 7-methoxy-2-oxo-2H-chromene-3-carboxylate]	> 100	0.15	> 100	0.15	0.15	> 100	0.15	> 100	15.3 ± 4.41						
		O=c1ccc2ccccc2o1 [coumarin, 2H-chromen-2-one]															100
> 47.8	> 47.8	COc1cccc2cc(C(=O)O[C@@H]3C[C@H](C)CC[C@H]3C(C)C)c(=O)oc12 [Compound 1d, (1R,2S,5R)-2-Isopropyl-5-methylcyclohexyl 8-Methoxy-2-oxo-2H-chromene-3-carboxylate]	36.6 ± 7.74	2.73	29.3 ± 2.05	3.41	3.93	25.4 ± 6.12	1	> 100	> 100						
		COc1cccc2c1C(=O)c1c(O)c3c(c(O)c1C2=O)C[C@@](O)(C(=O)CO)C[C@@H]3O[C@H]1C[C@H](N)[C@H](O)[C@H](C)O1 [Doxorubicin, reference compound]	1.6 ± 0.2		0.3 ± 0.1	1.0	0.4	0.7 ± 0.1	1.0	0.3 ± 0.1	0.3 ± 0.1						

SMILES	IC50 [1, 2] [µM]	IC50 [1, 3] [µM]	IC50 (MDA-MB-231; MDA-MB-231) [µM]	SI MDA-MB-231 (MDA-MB-231)	IC50 (PC3; PC-3) [µM]	SI PC3 (PC3)	SI SW480 (SW480)	IC50 (SW480; SW480) [µM]	SI SW620 (SW620)	IC50 (SW620; SW-620) [µM]	IC50 (HaCaT; HaCaT) [µM]	IC50 (MDA-MB-231) [µM]	IC50 (PC3) [µM]	IC50 (SW480) [µM]	IC50 (SW620) [µM]	IC50 (HaCaT) [µM]	maximum tolerated concentration (MTC) (Danio rerio larvae) [µM]
CCOC(=O)C1C(=O)Oc2ccccc2C1P(=O)(OCC)OCC (stereo not drawn) [Compound 4d, Ethyl 4-(diethoxyphosphoryl)-2-oxochroman-3-carboxylate]	> 100		> 100	1	> 100	1	1	> 100	1	> 100	> 100						
CCOP(=O)(OCC)C1C(=O)Oc2c(OC)cccc2C1P(=O)(c1ccccc1)c1ccccc1 (stereo not drawn) [Compound 5b, Diethyl (4-(Diphenylphosphoryl)-8-methoxy-2-oxochroman-3-yl)phosphonate]	> 100		> 100	1	> 100	1	1	> 100	1	> 100	> 100						
CC(C)[C@@H]1CC[C@@H](C)C[C@H]1OC(=O)c1cc2ccccc2oc1=O [Compound 1a, (1R,2S,5R)-2-Isopropyl-5-methylcyclohexyl 2-oxo-2H-chromene-3-carboxylate]	65.5	65.5	76.5 ± 8.85	1.08	57.8 ± 3.87	1.43	1.17	70.5 ± 2.31	1.44	57.3 ± 5.36	82.7 ± 3.5						0
CCOP(=O)(OCC)C1C(=O)Oc2ccccc2C1P(=O)(c1ccccc1)c1ccccc1 (stereo not drawn) [Compound 5a, Diethyl (4-(Diphenylphosphoryl)-2-oxochroman-3-yl)phosphonate]	> 100		> 100	1	> 100	1	1	> 100	1	> 100	> 100						
